Bridge positions count the residues as written; N and C are the ends. Square brackets hold non-standard residues; d marks the D form. Peptide text beside a SMILES is read from it. * marks the point of attachment. hPhe(3-Cl-4-CF3) = N[C@@H](CCc1ccc(C(F)(F)F)c(Cl)c1)C(=O)O; hPhe(3-F,4-CF3) = N[C@@H](CCc1ccc(C(F)(F)F)c(F)c1)C(=O)O; NMePhe(4-CF3) = CN[C@@H](Cc1ccc(C(F)(F)F)cc1)C(=O)O; 3Oxa8azabicyclo(3.2.1)octane = C1CC2COCC1N2*; NEtPhe(4-Me) = CCN[C@@H](Cc1ccc(C)cc1)C(=O)O; NMePhe(4-Me) = CN[C@@H](Cc1ccc(C)cc1)C(=O)O; NMeGly(cPent) = CN[C@H](C(=O)O)C1CCCC1; NMe3Pal = CN[C@@H](Cc1cccnc1)C(=O)O; NMeCha = CN[C@@H](CC1CCCCC1)C(=O)O; NMeChg = CN[C@H](C(=O)O)C1CCCCC1; NMeI = CC[C@H](C)[C@H](NC)C(=O)O; NMeD = CN[C@@H](CC(=O)O)C(=O)O; NMeL = CN[C@@H](CC(C)C)C(=O)O; NMeV = CN[C@H](C(=O)O)C(C)C; d(β3hA) = C[C@@H](N)CC(=O)O; NMeS = CN[C@@H](CO)C(=O)O; dPip = O=C(O)[C@H]1CCCCN1; Morpholide = C1CN(*)CCO1; NMeA = CN[C@@H](C)C(=O)O; NMeAib = CNC(C)(C)C(=O)O; Piperidide = C1CCN(*)CC1; Pyrrolidide = C1CCN(*)C1; dNMeA = CN[C@H](C)C(=O)O; Ac5c = NC1(C(=O)O)CCCC1; Aze = O=C(O)[C@@H]1CCN1; Sar = CNCC(=O)O
Assays:
[1] = target: protein-protein interaction between Kras and SOS1 (biotin-tagged human Kras loaded with GDP, His-tagged human SOS1) (Homo sapiens (Human), UniProt P01116, G12D); test: Protein-protein interaction inhibition between Kras and SOS1 (KrasG12D-SOS PPI) using AlphaScreen; format: biochemical; details: AlphaScreen; biotin-tagged human Kras loaded with GDP, His-tagged human SOS1; read-out: KRAS G12D-SOS PPI IC50;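 also: kras produced in E. coli, Ni-coupled donor beads and streptavidin acceptor beads, excitation 680 nm with emission detected at 520–620 nm via singlet oxygen transfer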
[2] = tested on: Human pancreatic cancer cell line AsPC-1 (G12D mutation Kras); test: AsPC-1 cell growth inhibition (AsPC-1 CGI); format: cell-based; details: read-out: AsPC-1 cell growth inhibition, 50% growth inhibitory concentration (IC50 value); 96 hours, CellTiter-Glo, values classified in ranges

Structure (SMILES) | IC50 [1] | IC50 [2]
CC[C@H](C)[C@@H]1NC(=O)[C@H](CC(C)C)N(C)C(=O)C[C@@H](C(=O)N2CCCCC2)N(C)C(=O)[C@H](C(C)C)N(C)C(=O)C2(CCCC2)NC(=O)[C@@H]2CCCN2C(=O)[C@H](CCc2ccc(C(F)(F)F)c(Cl)c2)NC(=O)CN(C)C(=O)[C@H](COC)N(C)C(=O)[C@@H]2CCN2C(=O)[C@H](C)N(C)C1=O [Compound 487] ([NMeL]I[NMeA][Aze][NMeS](Me)[Sar][hPhe(3-Cl-4-CF3)]P[Ac5c][NMeV][NMeD]-Piperidide; lactam N-11) | 5.9 nM | > 500 nM
CC[C@H](C)[C@@H]1NC(=O)[C@H](CC(C)C)N(C)C(=O)C[C@@H](C(=O)N2CCCC2)N(C)C(=O)[C@H](C2CCCC2)N(C)C(=O)C2(CCCC2)NC(=O)[C@@H]2CCCN2C(=O)[C@H](CCc2ccc(C(F)(F)F)c(F)c2)NC(=O)CN(C)C(=O)[C@H](Cc2ccc(C)cc2)N(C)C(=O)[C@@H]2CCN2C(=O)[C@H](C)N(C)C1=O [Compound 20] ([NMeL]I[NMeA][Aze][NMePhe(4-Me)][Sar][hPhe(3-F,4-CF3)]P[Ac5c][NMeGly(cPent)][NMeD]-Pyrrolidide; lactam N-11) | 0.76 nM | ≤ 20 nM
CC[C@H](C)[C@@H]1NC(=O)[C@H](C)N(C)C(=O)C[C@@H](C(=O)N2CCCCC2)N(C)C(=O)[C@H](C(C)C)N(C)C(=O)C2(CCCC2)NC(=O)[C@@H]2CCCN2C(=O)[C@H](CCc2ccc(C(F)(F)F)c(Cl)c2)NC(=O)[C@H]2CCCCN2C(=O)[C@H](CC2CCCCC2)N(C)C(=O)[C@@H]2CCCN2C(=O)CN(C)C1=O [Compound 823] ([NMeA]I[Sar]P[NMeCha][dPip][hPhe(3-Cl-4-CF3)]P[Ac5c][NMeV][NMeD]-Piperidide; lactam N-11) | 16 nM | > 500 nM
CC[C@H](C)[C@@H]1NC(=O)[C@H](CC(C)C)N(C)C(=O)C[C@@H](C(=O)N2C3CCC2COC3)N(C)C(=O)[C@H](C2CCCC2)N(C)C(=O)C2(CCCC2)NC(=O)[C@@H]2CCCN2C(=O)[C@H](CCc2ccc(C(F)(F)F)c(Cl)c2)NC(=O)CN(C)C(=O)[C@H](CC2CCCCC2)N(C)C(=O)[C@@H]2CCN2C(=O)[C@H](C)N(C)C1=O [Compound 973] ([NMeL]I[NMeA][Aze][NMeCha][Sar][hPhe(3-Cl-4-CF3)]P[Ac5c][NMeGly(cPent)][NMeD]-{3Oxa8azabicyclo(3.2.1)octane}; lactam N-11) | 2.8 nM | ≤ 20 nM
CC[C@H](C)[C@@H]1NC(=O)[C@H](CC(C)C)N(C)C(=O)C[C@@H](C(=O)N2CCCC2)N(C)C(=O)[C@H]([C@@H](C)CC)N(C)C(=O)C2(CCCC2)NC(=O)[C@@H]2CCCN2C(=O)[C@H](CCc2ccc(C(F)(F)F)c(Cl)c2)NC(=O)CN(C)C(=O)[C@H](Cc2ccc(C)cc2)N(CC)C(=O)[C@@H]2CCN2C(=O)[C@H](C)N(C)C1=O [Compound 1325] ([NMeL]I[NMeA][Aze][NEtPhe(4-Me)][Sar][hPhe(3-Cl-4-CF3)]P[Ac5c][NMeI][NMeD]-Pyrrolidide; lactam N-11) | 0.96 nM | ≤ 20 nM
CC[C@H](C)[C@@H]1NC(=O)[C@H](CC(C)C)N(C)C(=O)C[C@@H](C)NC(=O)[C@H](C2CCCCC2)N(C)C(=O)C2(CCCC2)NC(=O)[C@@H]2CCCN2C(=O)[C@H](CCc2ccc(C(F)(F)F)c(Cl)c2)NC(=O)CN(C)C(=O)[C@H](CC2CCCCC2)N(C)C(=O)[C@@H]2CCN2C(=O)[C@H](C)N(C)C1=O [Compound 1706] (cyclo([Ac5c][NMeChg][d(β3hA)][NMeL]I[NMeA][Aze][NMeCha][Sar][hPhe(3-Cl-4-CF3)]P)) | 140 nM | > 500 nM
CC[C@H](C)[C@@H]1NC(=O)[C@H](CC(C)C)N(C)C(=O)C[C@@H](C(=O)N2CCOCC2)NC(=O)[C@H](C(C)C)N(C)C(=O)C2(CCCC2)NC(=O)[C@@H]2CCCN2C(=O)[C@H](CCc2ccc(C(F)(F)F)c(Cl)c2)NC(=O)CN(C)C(=O)[C@H](CC2CCCCC2)N(C)C(=O)[C@@H]2CCN2C(=O)[C@H](C)N(C)C1=O [Compound 1200] ([NMeL]I[NMeA][Aze][NMeCha][Sar][hPhe(3-Cl-4-CF3)]P[Ac5c][NMeV]D-Morpholide; lactam N-11) | 45 nM | > 500 nM
CC[C@H](C)[C@@H]1NC(=O)[C@H](CC(C)C)N(C)C(=O)C[C@@H](C(=O)N2CCOCC2)N(C)C(=O)[C@H]([C@@H](C)CC)N(C)C(=O)C2(CCCC2)NC(=O)[C@@H]2CCCN2C(=O)[C@H](CCc2ccc(C(F)(F)F)c(Cl)c2)NC(=O)CN(C)C(=O)[C@H](Cc2ccc(C(F)(F)F)cc2)N(C)C(=O)[C@@H]2CCN2C(=O)[C@H](C)NC1=O [Compound 1293] ([NMeL]IA[Aze][NMePhe(4-CF3)][Sar][hPhe(3-Cl-4-CF3)]P[Ac5c][NMeI][NMeD]-Morpholide; lactam N-11) | 0.96 nM | ≤ 20 nM
CC[C@H](C)[C@@H]1NC(=O)[C@H](CC(C)C)N(C)C(=O)C[C@@H](C(=O)N2CCCC2)N(C)C(=O)[C@H]([C@@H](C)CC)N(C)C(=O)C2(CCCC2)NC(=O)[C@@H]2CCCN2C(=O)[C@H](CCc2ccc(C(F)(F)F)c(Cl)c2)NC(=O)CN(C)C(=O)[C@H](Cc2ccc(C(F)(F)F)cc2)N(C)C(=O)[C@@H]2CCN2C(=O)[C@H](C)N(C)C1=O [Compound 882] ([NMeL]I[NMeA][Aze][NMePhe(4-CF3)][Sar][hPhe(3-Cl-4-CF3)]P[Ac5c][NMeI][NMeD]-Pyrrolidide; lactam N-11) | 0.47 nM | ≤ 20 nM
CC[C@H](C)[C@@H]1NC(=O)[C@H](C)N(C)C(=O)C[C@@H](C)NC(=O)[C@H](C2CCCC2)N(C)C(=O)C2(CCCC2)NC(=O)[C@@H]2CCCN2C(=O)[C@H](CCc2ccc(C(F)(F)F)c(Cl)c2)NC(=O)[C@@H](C)N(C)C(=O)[C@H](CC2CCCCC2)N(C)C(=O)[C@@H]2CCN2C(=O)CN(C)C1=O [Compound 1539] (cyclo([Ac5c][NMeGly(cPent)][d(β3hA)][NMeA]I[Sar][Aze][NMeCha][dNMeA][hPhe(3-Cl-4-CF3)]P)) | 54 nM | > 500 nM
CC[C@H](C)[C@@H]1NC(=O)[C@H](C)N(C)C(=O)C[C@@H](C(=O)N2CCCCC2)N(C)C(=O)[C@H](C(C)C)N(C)C(=O)C2(CCCC2)NC(=O)[C@H](Cc2cccnc2)N(C)C(=O)[C@H](CCc2ccc(C(F)(F)F)c(Cl)c2)NC(=O)CN(C)C(=O)[C@H](CC2CCCCC2)N(C)C(=O)CN(C)C(=O)CN(C)C1=O [Compound 519] ([NMeA]I[Sar][Sar][NMeCha][Sar][hPhe(3-Cl-4-CF3)][NMe3Pal][Ac5c][NMeV][NMeD]-Piperidide; lactam N-11) | 2 nM | > 500 nM
CC[C@H](C)[C@@H]1NC(=O)[C@H](C)N(C)C(=O)C[C@@H](C(=O)N2CCCCC2)N(C)C(=O)[C@H](C(C)C)N(C)C(=O)C(C)(C)N(C)C(=O)[C@@H]2CCCN2C(=O)[C@H](CCc2ccc(C(F)(F)F)c(Cl)c2)NC(=O)CN(C)C(=O)[C@H](CC2CCCCC2)N(C)C(=O)[C@@H]2CCN2C(=O)[C@H](C)N(C)C1=O [Compound 1034] ([NMeA]I[NMeA][Aze][NMeCha][Sar][hPhe(3-Cl-4-CF3)]P[NMeAib][NMeV][NMeD]-Piperidide; lactam N-11) | 1.7 nM | > 500 nM

Source: patent publication US20240148821A1, “PHARMACEUTICAL USE OF CYCLIC PEPTIDE COMPOUND” (CHUGAI SEIYAKU KABUSHIKI KAISHA, priority 2021, published 2024)
